In patent publication US20260376293A1, “METHODS FOR STUDYING GPR158 PHARMACOLOGY AND IDENTIFICATION OF ITS LIGANDS” (UNIVERSITY OF FLORIDA RESEARCH FOUNDATION, INCORPORATED, priority 2022, published 2026):

Test system: layer II-III pyramidal neurons of GPR158 KO mice
Assay: Whole cell recordings, layer II-III neurons, GPR158 KO mice
Assay type: cell-based, mouse
Settings: for rheobase current / number of action potentials fired / resting membrane potential: 1 mM, GPR158 KO; for number of action potentials fired: 200 pA current ramp; for resting membrane potential: layer II-III
Protocol: FIGS. 14A-14H. Effect of glycine on neuronal excitability. A) Schematic of the electrophysiological recordings in slice preparation targeting mPFC neurons of layer II-III. Experiments were conducted with a cocktail of synaptic blockers: picrotoxin (100 μM) (blockade of GABAA receptor chloride channels), strychnine (1 μM) (antagonist of glycine and acetylcholine ionotropic receptors), CNQX (20 μM) (AMPA receptors antagonist), and APV (50 μM) (NMDAR antagonist). B) Representative traces of voltage responses to a 200 pA current ramp injection under control conditions and after bath application of glycine (1 mM) in WT mice. C) Quantification of changes in excitability by number of action potentials fired in response to 200 pA current ramp (n=8 neurons from 5 mice). Nonparametric t-test; Wilcoxon test, **p<0.01. D) Quantification of changes in excitability by rheobase current under control condition and glycine application (n=8 neurons from 5 mice). Nonparametric t-test; Wilcoxon test, **p<0.01. E) Representative traces of voltage responses to a 200 pA current ramp injection obtained from layer II-III pyramidal neurons in GPR158 KO mice under control conditions and during bath application of glycine (1 mM). F) Quantification of changes in excitability by number of action potentials fired in response to 200 pA current ramp (n=4 neurons/3 mice). Nonparametric t-test; Wilcoxon test, ns=p>0.05. G) Quantification of changes in excitability by rheobase current under control condition and glycine application (n=4 neurons/3 mice). Nonparametric t-test; Wilcoxon test, ns=p>0.05. H) Schematic representation of the proposed mechanism of glycine effects on mGlyR. In 14C, 14D, 14F, and 14G, solid circles (Ctrl), circles with no fill (Glycine), columns with no fill (Ctrl), and columns with dotted fill (Glycine).
FIGS. 15A-15H. Effect of glycine and taurine on excitability of layer V neurons and membrane properties of layer II/III neurons in wild type and GPR158 knockout mice. A) Representative traces of voltage responses to a 200 pA current ramp injection obtained from layer V pyramidal neurons in WT mice under control conditions and during bath application of glycine (1 mM). B) Quantification of glycine effects on neuronal excitability by number of action potentials fired in response to 200 pA current ramp under control condition and glycine application (n=4 neurons/3 mice). Nonparametric t-test; Wilcoxon test, ns=p>0.05. C) Quantification of glycine effects on neuronal excitability by rheobase current under control condition and glycine application (n=4 neurons/3 mice). Nonparametric t-test; Wilcoxon test, ns=p>0.05. D) Resting membrane potential of layer V pyramidal neurons in WT mice under control conditions and during bath application of glycine (n=4 neurons/3 mice). Nonparametric t-test; Wilcoxon test, ns=p>0.05. E) Resting membrane potential of layer II-III pyramidal neurons in WT mice under control conditions and during bath application of glycine (n=6 neurons/4 mice). Nonparametric t-test; Wilcoxon test, ns=p>0.05. F) Resting membrane potential of layer II-III pyramidal neurons in GPR158 KO mice under control conditions and during bath application of glycine (n=4 neurons/3 mice). Nonparametric t-test; Wilcoxon test, ns=p>0.05. G) Resting membrane potential under control conditions and during bath application of taurine (n=9 neurons/5 mice). Paired t-test, p=0.4809. H) Resting membrane potential under control conditions and during bath application of taurine (n=5 neurons/4 mice) Nonparametric t-test; Wilcoxon test, ns=p>0.05, p>0.9999. In FIGS. 15B, 15C, 15D, 15E, and 15F, solid circles (Ctrl), circles with angled-line fill (Glycine), columns with no fill (Ctrl), columns with angled-line fill (Glycine). In 15G and 15H, solid circles (Ctrl), circles with no fill (Taurine), columns with no fill (Ctrl), columns with dotted fill (Taurine).
FIGS. 16A-16F Effect of taurine on neuronal excitability of layer II/III neurons. […]

Row | SMILES | rheobase current | number of action potentials fired | resting membrane potential | excitability of layer II-III neurons (Gpr158 KO, glycine 1 mM)
1 | NCCS(=O)(=O)O [taurine, 2-aminoethanesulfonic acid] | ns | ns | ns | 
2 | NCC(=O)O [glycine] | ns | ns | ns | failed to alter excitability
